# Reference: patent publication US8003773B2, “Polynucleotides encoding MHC class I-restricted hTERT epitopes, analogues thereof or polyepitopes” (Institut Pasteur, priority 2005, dated 2011)
# Columns and labels:
# [1] = tested on: peptide loaded RMA-B7 target cells; assay: Peptide immunization of HLA-*B0702 transgenic mice for CTL induction, 51Cr release assay; type: in vivo; conditions: for CTL response after peptide immunization: HLA-*B0702 transgenic mice; for R/T: responder (specific lysis ≧ 10%) versus tested mice / mice tested generating specific CTL: peptide immunization; for R/T: responder (specific lysis ≧ 10%) versus tested mice: six mice per peptide
# Method: Female HLA-*B0702 transgenic mice at 8-10 weeks of age were injected subcutaneously (s.c.) at the base of the tail with 50 μg of individual HLA-B0702 restricted hTERT peptides supplemented with 140 μg of helper peptide co-emulsified in incomplete Freund's adjuvant (Difco, Detroit, Mich.). Ten days later, spleen cells of individual mouse were re-activated in vitro with relevant peptide in six wells plate. Effector CTL cells were tested in a standard 4-5 h ^51Cr-release assay, using relevant or negative control peptide-pulsed, HLA-*B0702 transfected RMA cells (RMA-B7). Mice were considered as responders, when specific lysis ≧10% was observed.
# (§1) Cytotoxicity assays were performed by using standard 4-5 h ^51Cr release assay as previously described (Firat et al. J Gene Med 2002; 4:38-45). Specific lysis in % was calculated by subtracting non-specific lysis observed with the control peptide. Mice were considered as responsers when specific lysis ≧10% was observed.
# [2] = tested on: human tumour cell lines of different origins; assay: Capacity of hTERT-specific CTLs from donors to lyse human tumour cell lines of different origins (summary); type: cell-based; conditions: CTL lines generated in vitro from healthy donors
# Method: as §1
# (§2) Human CTL from donors were obtained after in vitro re-activated PBMC for 4 weeks with hTERT peptide HLA-B0702 restricted as described previously (Hernandez et al. Proc Natl Acad Sci U.S.A. 2002; 99:12275-80). Briefly, Ficoll-purified human PBMCS were thawed and incubated (4×10^6/well) in 24-well plates in RPMI 1640, 1 mM sodium pyruvate, 100 IU/ml penicillin, 100 μg/ml streptomycin, 10 mM HEPES, 5×10^-5 M 2-mercaptoethanol supplemented with heat inactivated 10% human serum (Institut Jacques Boy, Reims, France). They were stimulated with each hTERT peptide (10 μg/ml) and recombinant human IL-7 (20 ng/ml; R&D Systems) was added.
# On day 7, lymphocytes were re-activated with peptide-pulsed γ-irradiated autologous PBMCs (50 Gy). The next day, 20 IU/ml human IL-2 (Roche, Mannheim, Germany) was added to the culture. CTL lines were re-activated weekly during four cycles. For some donors, CD8^+ T cells were purified after three round cycle, using CD8 microbeads (Miltenyi Biotec, Bergisch Gladbach, Germany.) according to manufacturer's recommendations and activated once before functional test. Cytolytic assays were performed 6 days after the last re-activation against various ^51Cr-labeled targets: T2-B7 pulsed with tested hTERT peptides or irrelevant peptide, or tumor cell lines.
# [3] = tested on: hTERT peptide-pulsed target cells; assay: Lv-hTERT immunization of HLA-B7 Tg mice, CTL response in chromium release assay; type: in vivo; conditions: Flap+ Lv-hTRT immunization, by restimulating peptide
# Method: (§3) Immunization with TRIPLv-hTERT was performed as a single subcutaneously (at the base of the tail) injection of 1500 ng of TripLv-hTERT suspension or control vector.
# (§4) 12 days later, hTERT peptide-specific T among splenocytes were detected by an ELISPOT assay (see below). Cytotoxicity assays were performed on the same immune splenocyte populations after in vitro stimulation with peptide-pulsed as described above.
# Mice were considered as responsers when specific lysis ≧10% was observed.
# [4] = tested on: hTERT peptide-pulsed target cells; assay: Lv-hTERT immunization of HHD mice (HLA-A2.1), CTL response in chromium release assay; type: in vivo
# Method: as §3, §4, §1
# [5] = tested on: RMA-B7 targets loaded with relevant peptides; assay: DNA immunization (hTERT) in HLA-*B0702 transgenic mice, peptide-specific CTL; type: in vivo; conditions: immunised with cDNA encoding hTERT; FIG. 2
# Method: HLA-B7 Tg mice and one naïve mice (N) were immunized with 100 μg DNA encoding Htert. On day 14, spleen cells from each mouse were separately in vitro stimulated with different hTERT-derived peptides. Effector cells were essayed 6 days later against RMA-B7 targets loaded with relevant (▪) or control (□) peptides as described in the material and methods. Percentage of lysis at a 60/1 ratio are shown (results from two independent experiments).
# The LvCMV-hTERT plasmid vector encoding the hTERT gene under the control of CMV promotor was purified on plasmid Giga kit columns under endotoxin-free conditions (Qiagen). Anesthetized HLA-*B0702 Transgenic mice were injected with said plasmid (50 μg each side) into regenerating tibialis anterior muscles. 14 days after, spleen cells of individual mouse were re-activated in vitro with peptide-pulsed (10 μg/ml), syngenic γ-irradiated (50 Gy) LPS-lymphoblast in complete medium, supplemented with 10% supernatant from Con A-activated rat spleens cells. Cytotoxicity assays were performed 6 days as described.
# as §1
# T2-B7 cells = assay: Induction of primary CTL responses from healthy donors' PBMC by hTERT peptides; type: cell-based, human; conditions: HLA-B0702 healthy donors, in vitro immunization; FIG. 3
# From the text: T-lymphocyte cells from HLA-*B0702^+ healthy donors were activated with each of the six hTERT peptide-pulsed autologous PBMC as detailed in materials and Method. After four rounds of weekly stimulation, effector cells, pulsed with relevant (▪) or control (□) peptides, were essayed for lytic activity against ^51Cr-labeled T2-B7 cells. Percentage of lysis at a 20/1 effector-target ratio is shown. Results from 8 out of 10 donors are presented (d1 to d8).
# as §2
# On day 7, lymphocytes were re-activated with peptide-pulsed γ-irradiated autologous PBMCs (50 Gy). The next day, 20 IU/ml human IL-2 (Roche, Mannheim, Germany) was added to the culture. CTL lines were re-activated weekly during four cycles. […]
Substance,CTL response after peptide immunization [1],R/T: responder (specific lysis ≧ 10%) versus tested mice [1],tumor cell recognition by CTL lines specific for the peptide [2],R/T [3],CTL responses specific for HLA-A2.1 restricted epitopes ([4]; HHD mice immunized with Lv-hTERT),"R/T ([4]; HHD mice, Flap+ Lv-hTRT immunization, by restimulating peptide)",mice tested generating specific CTL [1],mice with hTERT peptide-specific CTLs induced [5],donors with peptide-specific CTL responses (T2-B7 cells)
APSFRQVSCL [p68],strong CTL response in all mice tested,6/6,only recognize the T1-B7 targets,4/8,–,–,–,–,–
"p540: HLA-A2.1-restricted hTERT-derived peptide, epitope previously classified as dominant (ILAKFLHWL; UniProt O14746 540-548, looked up, fragment)",–,–,–,–,potent CTL responses,2/6,–,–,–
RPSLTGARRL [p351],–,4/6,recognize the majority of tumor cell lines tested,5/8,–,–,–,–,–
RPSFLLSSL [p342],moderate specific CTL,3/6,recognize only melanoma cells (LB 34 and KU 268 target),4/8,–,–,50 % of mice tested,about 15 % of mice,20 % of donors
APRCRAVRSL [p4],strong CTL response in all mice tested,6/6,do not lyse all the type of tested tumors,6/8,–,–,–,–,–
RPAEEATSL [p277],moderate specific CTL,3/6,recognize renal cancer (293 UT) but neither melanoma nor lymphoid tumor cells,5/8,–,–,50 % of mice tested,–,–
MPRAPRCRA [p1],–,4/6,only recognize the T1-B7 targets,4/8,–,–,–,–,–
